The values that follow come from PubChem BioAssay (NCI).

Among the test systems are NCI/ADR-RES ovarian; OVCAR-5 ovarian; SK-MEL-2 melanoma; ACHN renal; LOX IMVI melanoma; TK-10 renal; RPMI-8226 leukemia; OVCAR-8 ovarian; SK-MEL-28 melanoma; MOLT-4 leukemia; UACC-257 melanoma; DU-145 prostate; HCT-15 colon; U251 CNS; MDA-MB-231 breast; MALME-3M melanoma; MDA-N; HCC-2998 colon; A549 NSCLC; SF-268 CNS.
Common to all, as to assay: DTP human tumour cell line panel, 48 h

Molecules are shown by their SMILES.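 Step 1: Grow cells in 96-well plates. Step 2: Expose to compound for 48 hours at 5 concentrations. Step 3: Interpolate endpoints linearly; if unreached, use highest concentration. TGI: concentration producing complete growth inhibition.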

Consider `CC[C@]1(Cc2ccc(OC)c(OC)c2)C2CC(C(=O)OC)ON2O[C@H](OCc2ccccc2)[C@@H]1OC(C)=O` (stereo partly specified), for which the TGI with NCI/ADR-RES ovarian, with OVCAR-5 ovarian, in the test on SK-MEL-2 melanoma, with ACHN renal, in the test with LOX IMVI melanoma and in the test with TK-10 renal was above 100 µM throughout. Besides, the TGI in the test with RPMI-8226 leukemia, in the test with OVCAR-8 ovarian, in the test with SK-MEL-28 melanoma, with MOLT-4 leukemia, with UACC-257 melanoma and with DU-145 prostate was above 100 µM each time. Further, the TGI with HCT-15 colon, with U251 CNS, in the test on MDA-MB-231 breast, in the test with MALME-3M melanoma, in the test with MDA-N and in the test on HCC-2998 colon was above 100 µM in each case. Besides, the TGI (as a rule, the concentration at which net growth stops) in the test on A549 NSCLC is above 100 µM.

In the case of `CC1=C[C@H]([C@H]2C=C(C)C(C(N)=O)=CN2Cc2c(Cl)cccc2Cl)N(Cc2c(Cl)cccc2Cl)C=C1C(N)=O`, the TGI with NCI/ADR-RES ovarian, in the test on OVCAR-5 ovarian, in the test with SK-MEL-2 melanoma, with ACHN renal, in the test on LOX IMVI melanoma and in the test on TK-10 renal was above 75 µM throughout. Besides, the TGI in the test on RPMI-8226 leukemia, with OVCAR-8 ovarian, with SK-MEL-28 melanoma, in the test on MOLT-4 leukemia, in the test on UACC-257 melanoma and in the test on DU-145 prostate was above 75 µM each time. In addition, the TGI in the test on HCT-15 colon, in the test with U251 CNS, with MDA-MB-231 breast, in the test on MALME-3M melanoma, with MDA-N and in the test with HCC-2998 colon was above 75 µM each time. Also, the TGI with A549 NSCLC and with SF-268 CNS was above 75 µM each time.

Turning to `CC(C)=NOC(=O)OC[C@H]1O[C@@H](n2cnc3c(N)ncnc32)C(O)C1O` (stereo partly specified), the TGI in the test on NCI/ADR-RES ovarian, with OVCAR-5 ovarian, in the test with SK-MEL-2 melanoma, with ACHN renal, in the test on LOX IMVI melanoma and in the test with TK-10 renal was above 100 µM each time. Moreover, the TGI in the test with RPMI-8226 leukemia, in the test on OVCAR-8 ovarian, in the test on SK-MEL-28 melanoma, in the test on MOLT-4 leukemia, in the test with DU-145 prostate and in the test on HCT-15 colon was above 100 µM in each case. Besides, the TGI with U251 CNS, in the test with MDA-MB-231 breast, in the test with MALME-3M melanoma, in the test on MDA-N, with HCC-2998 colon and in the test on A549 NSCLC was above 100 µM each time. For the same molecule, the TGI with SF-268 CNS was above 100 µM.

Regarding `COc1ccc2nc3cc([N+](=O)[O-])ccc3c(Nc3ccc(S(=O)(=O)Nc4ncccn4)cc3)c2c1`, the TGI is above 100 µM in the test with NCI/ADR-RES ovarian; above 100 µM in the test on OVCAR-5 ovarian; above 86.3 µM in the test on SK-MEL-2 melanoma; above 71.8 µM with ACHN renal; above 100 µM with LOX IMVI melanoma; above 100 µM in the test on TK-10 renal. The TGI in the test on RPMI-8226 leukemia is above 66.1 µM; in the test on OVCAR-8 ovarian it was above 100 µM; in the test with SK-MEL-28 melanoma it was above 100 µM; with MOLT-4 leukemia, above 48.3 µM; with UACC-257 melanoma, above 100 µM; in the test with DU-145 prostate, above 100 µM. Besides, the TGI with HCT-15 colon, in the test with U251 CNS, in the test on MDA-MB-231 breast, in the test with MALME-3M melanoma, with MDA-N and with HCC-2998 colon was above 100 µM in each case. Besides, the TGI with A549 NSCLC and in the test on SF-268 CNS was above 100 µM each time.

On to `CN(/N=C/c1ccc(Cl)c(Cl)c1)C1=NCCCCN1`, for which the TGI was above 100 µM with NCI/ADR-RES ovarian; above 100 µM in the test with OVCAR-5 ovarian; 42.1 µM with SK-MEL-2 melanoma; above 100 µM in the test with ACHN renal; 27.2 µM in the test with LOX IMVI melanoma; above 100 µM in the test on TK-10 renal. For the same molecule, the TGI is 64 µM with RPMI-8226 leukemia; above 100 µM in the test with OVCAR-8 ovarian; 80.9 µM in the test on MOLT-4 leukemia; 50.8 µM in the test with UACC-257 melanoma; above 100 µM with DU-145 prostate; 81.6 µM in the test on HCT-15 colon. Moreover, the TGI in the test on U251 CNS is above 100 µM; with MDA-MB-231 breast, above 100 µM; in the test with MALME-3M melanoma, 32.5 µM; in the test with MDA-N it was 42.2 µM; in the test with HCC-2998 colon, 63.9 µM; in the test with A549 NSCLC, above 100 µM. This molecule yielded a TGI in the test on SF-268 CNS above 100 µM.

Take `CCOC(=O)C(NC(=O)c1ccccc1)(c1ccc(S(=O)(=O)Nc2onc(C)c2C)cc1)C(F)(F)F` (stereo unspecified): the TGI with NCI/ADR-RES ovarian, in the test with OVCAR-5 ovarian, with SK-MEL-2 melanoma, in the test on ACHN renal, in the test on LOX IMVI melanoma and in the test on TK-10 renal was above 100 µM throughout. In addition, the TGI with RPMI-8226 leukemia, in the test on OVCAR-8 ovarian, with SK-MEL-28 melanoma, in the test with MOLT-4 leukemia, with UACC-257 melanoma and with DU-145 prostate was above 100 µM each time. For the same molecule, the TGI in the test on HCT-15 colon, in the test with U251 CNS, in the test on MDA-MB-231 breast, in the test on MALME-3M melanoma, in the test with MDA-N and in the test with HCC-2998 colon was above 100 µM in each case. Further, the TGI with A549 NSCLC and in the test on SF-268 CNS was above 100 µM throughout.

Turning to `C=CCc1cccc2cc(C(=O)Nc3ccc(C)cc3)c(=N)oc12`, the TGI in the test on NCI/ADR-RES ovarian, in the test on OVCAR-5 ovarian, in the test on SK-MEL-2 melanoma, in the test on ACHN renal, in the test with LOX IMVI melanoma and with RPMI-8226 leukemia was above 100 µM throughout. Besides, the total growth inhibition concentration (TGI) in the test with OVCAR-8 ovarian, in the test with SK-MEL-28 melanoma, with MOLT-4 leukemia, in the test with UACC-257 melanoma, in the test on DU-145 prostate and in the test with HCT-15 colon was above 100 µM in each case. For the same molecule, the TGI in the test with U251 CNS, with MDA-MB-231 breast, in the test with MALME-3M melanoma, in the test with MDA-N, in the test with HCC-2998 colon and in the test with A549 NSCLC was above 100 µM in each case. In the test with SF-268 CNS, this molecule registered a TGI above 100 µM.
